Converted amounts (≈) assume the structure as drawn.
Columns and labels:
Assay type in all cases: functional
Candida albicans [1] = experiment: Antifungal activity against Candida albicans
Candida parapsilosis = experiment: Antifungal activity against Candida parapsilosis; conditions: Lodderomyces parapsilosis
Aspergillus fumigatus [2] = experiment: Antifungal activity against Aspergillus fumigatus
Candida albicans [3] = experiment: Antifungal activity against Candida albicans assessed as inhibition of fungal growth incubated for 20 hrs
Candida albicans [4] = experiment: Antifungal activity against Candida albicans SANK 51486 by 96-well microplate method
Cryptococcus neoformans [5] = experiment: Antifungal activity against Cryptococcus neoformans TIMM 1855 by 96-well microplate method
Aspergillus fumigatus [6] = experiment: Antifungal activity against Aspergillus fumigatus SANK 10569 by 96-well microplate method
Aspergillus flavus = experiment: Antifungal activity against Aspergillus flavus SANK 18497 by 96-well microplate method
Cryptococcus neoformans [7] = experiment: Antifungal activity against Cryptococcus neoformans; conditions: Cryptococcus neoformans; read-out: MIC
Candida = experiment: Antifungal activity against Candida spp.

## C[C@@H](OCc1cc(-c2cccc(Cl)c2)no1)[C@](O)(Cn1cncn1)c1ccc(F)cc1F
Candida albicans [1]
  MIC80: 0.0313 µg/mL (≈ 0.0679 µM)

## Cc1cccc(-c2cc(CO[C@H](C)[C@](O)(Cn3cncn3)c3ccc(F)cc3F)on2)c1
Candida albicans [1]
  MIC80: 0.0313 µg/mL (≈ 0.0711 µM)

## C[C@@H](OCc1cc(-c2c(F)c(F)c(F)c(F)c2F)no1)[C@](O)(Cn1cncn1)c1ccc(F)cc1F
Candida albicans [1]
  MIC80: 0.0313 µg/mL (≈ 0.0606 µM)

## Cc1ccccc1-c1cc(CO[C@H](C)[C@](O)(Cn2cncn2)c2ccc(F)cc2F)on1
Candida albicans [1]
  MIC80: 0.0313 µg/mL (≈ 0.0711 µM)

## C[C@@H](OCc1cc(-c2ccccc2)no1)[C@](O)(Cn1cncn1)c1ccc(F)cc1F
Candida albicans [1]
  MIC80: 0.0313 µg/mL (≈ 0.0734 µM)

## C[C@@H](OCc1cc(-c2ccc(Cl)c(F)c2)no1)[C@](O)(Cn1cncn1)c1ccc(F)cc1F
Candida albicans [1]
  MIC80: 0.0313 µg/mL (≈ 0.0654 µM)

## CC(C)n1ncn(-c2ccc(N3CCN([C@H](C)[C@](O)(Cn4cncn4)c4ccc(F)cc4F)CC3)nc2)c1=O
Candida parapsilosis
  MIC: 0.25 µg/mL (≈ 0.463 µM)

## C[C@@H](N1CCN(c2ccc(-n3cnn(Cc4ccc(OC(F)(F)F)cc4)c3=O)cc2)CC1)[C@](O)(Cn1cncn1)c1ccc(F)cc1F
Aspergillus fumigatus [2]
  MIC: 32 µg/mL (≈ 47.7 µM)

## C[C@@H](OCc1cc(-c2c(F)cc(F)cc2F)no1)[C@](O)(Cn1cncn1)c1ccc(F)cc1F
Candida albicans [1]
  MIC80: 0.0313 µg/mL (≈ 0.0652 µM)

## C[C@@H](N1CCN(c2ccc(-n3cnn(Cc4cc(C(F)(F)F)cc(C(F)(F)F)c4)c3=O)cn2)CC1)[C@](O)(Cn1cncn1)c1ccc(F)cc1F
Candida parapsilosis
  MIC: 4 µg/mL (≈ 5.53 µM)

## C[C@@H](N1CCN(c2ccc(-n3cnn(Cc4cccc(C(F)(F)F)c4)c3=O)nc2)CC1)[C@](O)(Cn1cncn1)c1ccc(F)cc1F
Candida parapsilosis
  MIC: 4 µg/mL (≈ 6.1 µM)

## C[C@@H](OCc1cc(-c2cccc(F)c2)no1)[C@](O)(Cn1cncn1)c1ccc(F)cc1F
Candida albicans [1]
  MIC80: 0.0313 µg/mL (≈ 0.0704 µM)

## C[C@@H](N1CCN(c2ccc(-n3cnnn3)cc2)C1=O)[C@](O)(Cn1c[n+](COC(=O)OC2COCOC2)cn1)c1ccc(F)cc1F.[I-]
Candida albicans [3]
  MIC: 0.016 µg/mL

## CCC(=O)OC[n+]1cnn(C[C@](O)(c2ccc(F)cc2F)[C@@H](C)N2CCN(c3ccc(-n4cnnn4)cc3)C2=O)c1.[I-]
Candida albicans [3]
  MIC: 0.016 µg/mL

## C[C@@H](OCc1cc(-c2ccc(F)c(F)c2)no1)[C@](O)(Cn1cncn1)c1ccc(F)cc1F
Candida albicans [1]
  MIC80: 0.0313 µg/mL (≈ 0.0677 µM)

## C[C@@H](N1CCN(c2ccc(-n3cnn(Cc4ccc(OC(F)(F)F)cc4)c3=O)nc2)CC1)[C@](O)(Cn1cncn1)c1ccc(F)cc1F
Candida parapsilosis
  MIC: 4 µg/mL (≈ 5.96 µM)

## C[C@@H](OCc1cc(-c2cc(F)c(F)c(F)c2F)no1)[C@](O)(Cn1cncn1)c1ccc(F)cc1F
Candida albicans [1]
  MIC80: 0.0313 µg/mL (≈ 0.0628 µM)

## C[C@@H](N1CCN(c2ccc(-n3cnnn3)cc2)C1=O)[C@](O)(Cn1c[n+](COC(=O)C(C)(C)C)cn1)c1ccc(F)cc1F.[I-]
Candida albicans [3]
  MIC: 0.016 µg/mL

## C[C@@H](S[C@H]1CO[C@H](/C=C/C=C/c2ccc(C#N)cc2)OC1)[C@](O)(Cn1cncn1)c1ccc(F)cc1F
Candida albicans [4]
  MIC: ≤ 0.008 µg/mL
Cryptococcus neoformans [5]
  MIC: ≤ 0.008 µg/mL
Aspergillus fumigatus [6]
  MIC: ≤ 0.008 µg/mL
Aspergillus flavus
  MIC: ≤ 0.008 µg/mL

## C[C@@H](N1CCN(c2ccc(-n3cnn(Cc4cc(C(F)(F)F)cc(C(F)(F)F)c4C(F)(F)F)c3=O)cn2)CC1)[C@](O)(Cn1cncn1)c1ccc(F)cc1F
Candida parapsilosis
  MIC: 4 µg/mL (≈ 5.05 µM)

## C[C@@H](OCc1cc(-c2ccc(F)c(Cl)c2)no1)[C@](O)(Cn1cncn1)c1ccc(F)cc1F
Candida albicans [1]
  MIC80: 0.0313 µg/mL (≈ 0.0654 µM)

## CC(C)n1ncn(-c2ccc(N3CCN([C@H](C)[C@](O)(Cn4cncn4)c4ccc(F)cc4F)CC3)cn2)c1=O
Candida parapsilosis
  MIC: 0.25 µg/mL (≈ 0.463 µM)
Aspergillus fumigatus [2]
  MIC: 4 µg/mL (≈ 7.41 µM)
Cryptococcus neoformans [7]
  MIC: 0.5 µg/mL (≈ 0.927 µM)
Candida
  MIC: 0.25 µg/mL (≈ 0.463 µM)

## C[C@H](n1nnc(CCN2CCN(c3cccc(C(F)(F)F)c3)CC2)n1)[C@](O)(Cn1cncn1)c1ccc(F)cc1F
Cryptococcus neoformans [7]
  MIC: 0.25 µg/mL (≈ 0.433 µM)
Candida
  MIC: 0.25 µg/mL (≈ 0.433 µM)

## Cc1ccc(-c2cc(CO[C@H](C)[C@](O)(Cn3cncn3)c3ccc(F)cc3F)on2)cc1
Candida albicans [1]
  MIC80: 0.0313 µg/mL (≈ 0.0711 µM)

## C[C@@H](OCc1cc(-c2ccccc2F)no1)[C@](O)(Cn1cncn1)c1ccc(F)cc1F
Candida albicans [1]
  MIC80: 0.0313 µg/mL (≈ 0.0704 µM)

## C[C@@H](OCc1cc(-c2ccc(Cl)cc2)no1)[C@](O)(Cn1cncn1)c1ccc(F)cc1F
Candida albicans [1]
  MIC80: 0.0313 µg/mL (≈ 0.0679 µM)

## C[C@@H](S[C@H]1CO[C@H](/C=C/C=C/c2ccc(C#N)cc2F)OC1)[C@](O)(Cn1cncn1)c1ccc(F)cc1
Candida albicans [4]
  MIC: ≤ 0.008 µg/mL
Cryptococcus neoformans [5]
  MIC: ≤ 0.008 µg/mL
Aspergillus fumigatus [6]
  MIC: ≤ 0.008 µg/mL
Aspergillus flavus
  MIC: ≤ 0.008 µg/mL

## C[C@@H](N1CCN(c2ccc(-n3cnn(Cc4cccc(C(F)(F)F)c4)c3=O)cn2)CC1)[C@](O)(Cn1cncn1)c1ccc(F)cc1F
Candida parapsilosis
  MIC: 4 µg/mL (≈ 6.1 µM)

## C[C@@H](N1CCN(c2ccc(-n3cnn(Cc4ccc(C(F)(F)F)cc4)c3=O)cn2)CC1)[C@](O)(Cn1cncn1)c1ccc(F)cc1F
Candida parapsilosis
  MIC: 4 µg/mL (≈ 6.1 µM)

## CC(C)C(=O)OC[n+]1cnn(C[C@](O)(c2ccc(F)cc2F)[C@@H](C)N2CCN(c3ccc(-n4cnnn4)cc3)C2=O)c1.[I-]
Candida albicans [3]
  MIC: 0.016 µg/mL

## C[C@@H](OCc1cc(-c2cc(F)cc(F)c2)no1)[C@](O)(Cn1cncn1)c1ccc(F)cc1F
Candida albicans [1]
  MIC80: 0.0313 µg/mL (≈ 0.0677 µM)

## C[C@@H](N1CCN(c2ccc(-n3cnn(Cc4ccc(C(F)(F)F)cc4)c3=O)nc2)CC1)[C@](O)(Cn1cncn1)c1ccc(F)cc1F
Candida parapsilosis
  MIC: 4 µg/mL (≈ 6.1 µM)

## C[C@@H](OCc1cc(-c2ccc(F)cc2Cl)no1)[C@](O)(Cn1cncn1)c1ccc(F)cc1F
Candida albicans [1]
  MIC80: 0.0313 µg/mL (≈ 0.0654 µM)

## C[C@@H](S[C@H]1CO[C@H](/C=C/C=C/c2ccc(C#N)cc2F)OC1)[C@](O)(Cn1cncn1)c1c(F)cccc1F
Candida albicans [4]
  MIC: ≤ 0.008 µg/mL
Cryptococcus neoformans [5]
  MIC: ≤ 0.008 µg/mL
Aspergillus fumigatus [6]
  MIC: ≤ 0.008 µg/mL
Aspergillus flavus
  MIC: ≤ 0.008 µg/mL

## C[C@@H](OCc1cc(-c2ccc(OC(F)(F)F)cc2)no1)[C@](O)(Cn1cncn1)c1ccc(F)cc1F
Candida albicans [1]
  MIC80: 0.0313 µg/mL (≈ 0.0613 µM)

## C[C@@H](OCc1cc(-c2c(F)cccc2F)no1)[C@](O)(Cn1cncn1)c1ccc(F)cc1F
Candida albicans [1]
  MIC80: 0.0313 µg/mL (≈ 0.0677 µM)

## C[C@@H](S[C@H]1CO[C@H](/C=C/C=C/c2ccc(C#N)cc2F)OC1)[C@](O)(Cn1cncn1)c1cccc(F)c1F
Candida albicans [4]
  MIC: ≤ 0.008 µg/mL
Cryptococcus neoformans [5]
  MIC: ≤ 0.008 µg/mL
Aspergillus fumigatus [6]
  MIC: ≤ 0.008 µg/mL
Aspergillus flavus
  MIC: ≤ 0.008 µg/mL

## C[C@@H](OCc1cc(-c2ccccc2Cl)no1)[C@](O)(Cn1cncn1)c1ccc(F)cc1F
Candida albicans [1]
  MIC80: 0.0313 µg/mL (≈ 0.0679 µM)

## C[C@@H](OCc1cc(-c2ccc(C(F)(F)F)cc2)no1)[C@](O)(Cn1cncn1)c1ccc(F)cc1F
Candida albicans [1]
  MIC80: 0.0313 µg/mL (≈ 0.0633 µM)

## C[C@@H](N1CCN(c2ccc(-n3cnn(Cc4ccc(OC(F)(F)F)cc4)c3=O)cn2)CC1)[C@](O)(Cn1cncn1)c1ccc(F)cc1F
Candida parapsilosis
  MIC: 4 µg/mL (≈ 5.96 µM)

## C[C@@H](N1CCN(c2ccc(-n3cnn(Cc4cc(C(F)(F)F)cc(C(F)(F)F)c4C(F)(F)F)c3=O)nc2)CC1)[C@](O)(Cn1cncn1)c1ccc(F)cc1F
Candida parapsilosis
  MIC: 4 µg/mL (≈ 5.05 µM)

## C[C@@H](N1CCN(c2ccc(-n3cnn(Cc4cc(C(F)(F)F)cc(C(F)(F)F)c4)c3=O)nc2)CC1)[C@](O)(Cn1cncn1)c1ccc(F)cc1F
Candida parapsilosis
  MIC: 4 µg/mL (≈ 5.53 µM)

## C[C@@H](OCc1cc(-c2ccc(C#N)cc2)no1)[C@](O)(Cn1cncn1)c1ccc(F)cc1F
Candida albicans [1]
  MIC80: 0.0313 µg/mL (≈ 0.0693 µM)

## CC(=O)NCCOC(=O)OC[n+]1cnn(C[C@](O)(c2ccc(F)cc2F)[C@@H](C)N2CCN(c3ccc(-n4cnnn4)cc3)C2=O)c1.[I-]
Candida albicans [3]
  MIC: 0.016 µg/mL

## CC(C)COC(=O)OC[n+]1cnn(C[C@](O)(c2ccc(F)cc2F)[C@@H](C)N2CCN(c3ccc(-n4cnnn4)cc3)C2=O)c1.[I-]
Candida albicans [3]
  MIC: 0.016 µg/mL

## C[C@@H](OCc1cc(-c2cc(F)ccc2F)no1)[C@](O)(Cn1cncn1)c1ccc(F)cc1F
Candida albicans [1]
  MIC80: 0.0313 µg/mL (≈ 0.0677 µM)

## C[C@@H](OCc1cc(-c2ccc(F)cc2F)no1)[C@](O)(Cn1cncn1)c1ccc(F)cc1F
Candida albicans [1]
  MIC80: 0.0313 µg/mL (≈ 0.0677 µM)

## C[C@@H](OCc1cc(-c2ccc(Cl)cc2F)no1)[C@](O)(Cn1cncn1)c1ccc(F)cc1F
Candida albicans [1]
  MIC80: 0.0313 µg/mL (≈ 0.0654 µM)

## C[C@@H](OCc1cc(-c2cccc(F)c2F)no1)[C@](O)(Cn1cncn1)c1ccc(F)cc1F
Candida albicans [1]
  MIC80: 0.0313 µg/mL (≈ 0.0677 µM)

## CC(C)CCC(=O)OC[n+]1cnn(C[C@](O)(c2ccc(F)cc2F)[C@@H](C)N2CCN(c3ccc(-n4cnnn4)cc3)C2=O)c1.[I-]
Candida albicans [3]
  MIC: 0.016 µg/mL
